pEC50, pIC50: −log10 of the molar value. Activity calls are given as the source filed them. The rule behind the calls is not given here.
Tests used:
Plasmodium falciparum [1] = assay: Antiparasitic activity against Plasmodium falciparum NF54 with attB plasmid infected in red blood cells assessed as reduction in parasitemia incubated for 72 hrs; type: functional, organism-based, Red blood cell; conditions: NF54, Erythrocyte
[2] = target: T1, DNA-directed DNA polymerase (Enterobacteria phage T4) (UniProt P04415); assay: Inhibition of Enterobacteria T4 phage DNA polymerase
T1 sequence (whole entry): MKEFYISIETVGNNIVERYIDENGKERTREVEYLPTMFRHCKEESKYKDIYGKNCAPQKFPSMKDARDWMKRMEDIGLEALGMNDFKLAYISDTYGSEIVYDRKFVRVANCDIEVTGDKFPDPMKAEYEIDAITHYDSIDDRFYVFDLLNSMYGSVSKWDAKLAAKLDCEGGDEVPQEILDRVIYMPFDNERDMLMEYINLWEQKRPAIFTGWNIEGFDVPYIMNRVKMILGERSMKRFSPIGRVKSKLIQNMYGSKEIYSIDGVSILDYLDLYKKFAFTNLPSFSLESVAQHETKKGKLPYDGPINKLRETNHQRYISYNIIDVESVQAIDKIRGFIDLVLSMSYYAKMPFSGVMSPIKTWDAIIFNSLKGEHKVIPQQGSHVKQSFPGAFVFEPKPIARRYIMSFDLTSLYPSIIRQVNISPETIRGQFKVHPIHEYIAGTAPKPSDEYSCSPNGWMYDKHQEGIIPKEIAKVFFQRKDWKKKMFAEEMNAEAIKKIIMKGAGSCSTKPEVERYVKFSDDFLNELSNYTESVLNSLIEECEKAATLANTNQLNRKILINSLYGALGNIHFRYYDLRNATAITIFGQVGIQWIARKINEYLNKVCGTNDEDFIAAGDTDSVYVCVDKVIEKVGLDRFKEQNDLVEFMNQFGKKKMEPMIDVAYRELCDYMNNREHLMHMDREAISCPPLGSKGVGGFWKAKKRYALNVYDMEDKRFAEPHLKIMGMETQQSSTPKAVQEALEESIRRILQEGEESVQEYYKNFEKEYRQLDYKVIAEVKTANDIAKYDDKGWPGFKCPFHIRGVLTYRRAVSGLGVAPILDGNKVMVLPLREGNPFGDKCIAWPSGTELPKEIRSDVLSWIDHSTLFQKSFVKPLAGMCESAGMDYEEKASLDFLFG

[3] = target: DNA polymerase I (Escherichia coli) (UniProt P00582); assay: Inhibition of Escherichia coli DNA polymerase I
DNA polymerase I (Escherichia coli), sequence (P00582 whole entry): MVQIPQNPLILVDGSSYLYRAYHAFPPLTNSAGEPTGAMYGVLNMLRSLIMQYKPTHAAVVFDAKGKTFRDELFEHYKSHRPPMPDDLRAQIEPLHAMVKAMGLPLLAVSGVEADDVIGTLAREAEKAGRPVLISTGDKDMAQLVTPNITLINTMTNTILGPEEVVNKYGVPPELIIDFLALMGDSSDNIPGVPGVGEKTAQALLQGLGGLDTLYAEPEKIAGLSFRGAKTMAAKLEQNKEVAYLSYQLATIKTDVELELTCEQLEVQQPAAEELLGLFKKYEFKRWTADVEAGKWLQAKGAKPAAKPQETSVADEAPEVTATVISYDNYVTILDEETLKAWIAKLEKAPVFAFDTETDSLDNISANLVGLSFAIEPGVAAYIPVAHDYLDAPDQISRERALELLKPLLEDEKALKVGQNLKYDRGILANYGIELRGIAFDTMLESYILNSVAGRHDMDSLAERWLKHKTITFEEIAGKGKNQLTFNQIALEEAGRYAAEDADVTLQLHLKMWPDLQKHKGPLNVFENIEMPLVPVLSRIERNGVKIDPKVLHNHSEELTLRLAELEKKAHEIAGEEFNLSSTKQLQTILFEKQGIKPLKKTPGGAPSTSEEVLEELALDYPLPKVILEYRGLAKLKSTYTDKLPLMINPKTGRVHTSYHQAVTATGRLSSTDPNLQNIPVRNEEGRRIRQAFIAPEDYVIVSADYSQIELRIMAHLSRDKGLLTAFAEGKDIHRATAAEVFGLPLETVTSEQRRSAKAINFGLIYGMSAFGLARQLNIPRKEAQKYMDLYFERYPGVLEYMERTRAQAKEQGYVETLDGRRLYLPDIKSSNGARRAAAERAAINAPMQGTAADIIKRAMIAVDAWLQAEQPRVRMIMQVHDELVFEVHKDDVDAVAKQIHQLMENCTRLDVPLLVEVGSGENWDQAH

Plasmodium falciparum [4] = assay: Inhibition of plasmodium falciparum apicoplast DNA polymerase exonuclease activity using blunt-ended double stranded oligonucleotide with 2-aminopurine at position 1 on 3' end as substrate assessed as exonuclease specific activity at 100 uM (reference value: 2.2 +/- 0.09%)
Plasmodium falciparum [5] = assay: Inhibition of plasmodium falciparum apicoplast DNA polymerase exonuclease activity using blunt-ended double stranded oligonucleotide with 2-aminopurine at position 1 on 3' end as substrate assessed as reduction in exonuclease proofreading activity at 3'-5' direction at 100 uM relative to control
Plasmodium falciparum [6] = assay: Non-competitive inhibition of Plasmodium falciparum apicoplast DNA polymerase assessed as inhibition constant for lower affinity site in presence of various concentrations of dNTPs by molecular beacon assay
Plasmodium falciparum [7] = assay: Non-competitive inhibition of Plasmodium falciparum apicoplast DNA polymerase assessed as inhibition constant for higher affinity site in presence of various concentrations of dNTPs by molecular beacon assay
Plasmodium falciparum [8] = assay: Antiparasitic activity against Plasmodium falciparum NF54 with attB plasmid infected in red blood cells assessed as reduction in parasitemia incubated for 96 hrs in presence of isopentenyl pyrophosphate by flow cytometry analysis; type: functional, organism-based; conditions: Red blood cell
Plasmodium falciparum [9] = assay: Competitive inhibition of Plasmodium falciparum apicoplast DNA polymerase assessed as inhibition constant for lower affinity site in presence of various concentrations of dNTPs by molecular beacon assay
[10] = Inhibition of plasmodium falciparum apicoplast DNA polymerase exonuclease activity using blunt-ended double stranded oligonucleotide with 2-aminopurine at position 1 on 3' end as substrate assessed as reduction in exonuclease proofreading activity at 3'-5' direction
Plasmodium falciparum [11] = assay: Non-competitive inhibition of exonuclease deficient Plasmodium falciparum apicoplast DNA polymerase harboring wild type W512 residue assessed as inhibition constant for lower affinity site in presence of dNTPs
Plasmodium falciparum [12] = assay: Non-competitive inhibition of exonuclease deficient Plasmodium falciparum apicoplast DNA polymerase W512A mutant assessed as inhibition constant for lower affinity site in presence of dNTPs
Plasmodium falciparum [13] = assay: Non-competitive inhibition of exonuclease deficient Plasmodium falciparum apicoplast DNA polymerase W512A mutant assessed as inhibition constant for higher affinity site in presence of dNTPs
Plasmodium falciparum [14] = assay: Non-competitive inhibition of exonuclease deficient Plasmodium falciparum apicoplast DNA polymerase harboring wild type W512 residue assessed as inhibition constant for higher affinity site in presence of dNTPs

pEC50 (Plasmodium falciparum [1]) | inhibition [2] | inhibition [3] | Activity (Plasmodium falciparum [4]) [U] | inhibition (Plasmodium falciparum [5]) [%] | KiL (Plasmodium falciparum [6]) [µM] | KiH (Plasmodium falciparum [7]) [µM] | KiH (Plasmodium falciparum [9]) [µM] | pIC50 [10] | SMILES | Activity (Plasmodium falciparum [8]) | KiL (Plasmodium falciparum [11]) [µM] | KiL (Plasmodium falciparum [12]) [µM] | KiH (Plasmodium falciparum [13]) [µM] | KiH (Plasmodium falciparum [14]) [µM]
5.34 | inactive | inactive | 1.2 |  |  |  |  |  | CC(C)(C)c1ccc(C(=O)Nc2c3c(nn2-c2cccc(Cl)c2)COC3)cc1 |  |  |  |  | 
5.32 | inactive | inactive | 1.9 |  |  |  |  |  | CC(C)(C)c1ccc(C(=O)Nc2c3c(nn2-c2cccc(Cl)c2)C[S+]([O-])C3)cc1 (centres undefined) |  |  |  |  | 
< 4.70 | inactive | inactive | 0.06 | > 90 |  |  |  |  | CC(C)(C)c1ccc(S(=O)(=O)Nc2c3c(nn2-c2cccc(C(F)(F)F)c2)CSC3)cc1 |  |  |  |  | 
5.70 | inactive | inactive | 2.4 | < 50 |  |  |  |  | CC(C)(C)c1ccc(C(=O)Nc2c3c(nn2-c2cccc(C(F)(F)F)c2)CSC3)cc1 |  |  |  |  | 
< 4.70 | inactive | inactive | 2.3 |  |  |  |  |  | O=C(Nc1c2c(nn1-c1cccc(Cl)c1)COC2)C(F)(F)F |  |  |  |  | 
5.40 | inactive | inactive | 1.6 | < 50 | 15.9 | 5.98 |  |  | CC(C)(C)c1ccc(C(=O)Nc2c3c(nn2-c2cccc(Cl)c2)CSC3)cc1 | Active |  |  |  | 
< 4.70 | inactive | inactive | 2.3 |  |  |  |  |  | Cc1cccc(-n2nc3c(c2NS(=O)(=O)c2ccc(C(C)(C)C)cc2)CSC3)c1 |  |  |  |  | 
5.35 | inactive | inactive | 1.8 | < 50 |  |  |  |  | Cc1ccc(-n2nc3c(c2NC(=O)Nc2ccc(C(C)(C)C)cc2)CSC3)cc1 |  |  |  |  | 
5.37 | inactive | inactive | 1.4 | < 50 |  | 2.17 | 11.9 |  | CC(C)(C)c1ccc(NC(=O)Nc2c3c(nn2-c2cccc(C(F)(F)F)c2)CSC3)cc1 |  |  |  |  | 
5.38 | inactive | inactive | 2.4 | < 50 |  |  |  |  | CC(C)(C)c1ccc(C(=O)Nc2c3c(nn2-c2ccc(Cl)cc2)CSC3)cc1 |  |  |  |  | 
< 4.70 | inactive | inactive | 1.2 |  |  |  |  |  | O=C(Nc1c2c(nn1-c1cccc(Cl)c1)COC2)c1ccc(-c2ccccc2)cc1 |  |  |  |  | 
5.10 | inactive | inactive | 1.8 |  |  |  |  |  | O=C(Nc1c2c(nn1-c1cccc(Cl)c1)COC2)c1ccc2ccccc2c1 |  |  |  |  | 
5.32 | inactive | inactive | 2 | < 50 |  |  |  |  | CC(C)(C)c1ccc(C(=O)Nc2c3c(nn2-c2ccc(C(F)(F)F)cc2)CSC3)cc1 |  |  |  |  | 
< 4.70 | inactive | inactive | 0.4 | > 90 |  |  |  | 4.40 | CC(C)(C)c1ccc(S(=O)(=O)Nc2c3c(nn2-c2cccc(Cl)c2)CSC3)cc1 |  |  |  |  | 
< 4.70 | inactive | inactive | 0.06 | > 90 |  |  |  | 4.68 | CC(C)(C)c1ccc(S(=O)(=O)Nc2c3c(nn2-c2ccc(Cl)cc2)CSC3)cc1 |  |  |  |  | 

The next lines start with the compound.

SMILES | pEC50 (Plasmodium falciparum [1]) | inhibition [2] | inhibition [3] | Activity (Plasmodium falciparum [4]) [U] | inhibition (Plasmodium falciparum [5]) [%] | KiL (Plasmodium falciparum [6]) [µM] | KiH (Plasmodium falciparum [7]) [µM] | KiH (Plasmodium falciparum [9]) [µM] | pIC50 [10] | Activity (Plasmodium falciparum [8]) | KiL (Plasmodium falciparum [11]) [µM] | KiL (Plasmodium falciparum [12]) [µM] | KiH (Plasmodium falciparum [13]) [µM] | KiH (Plasmodium falciparum [14]) [µM]
CC(C)(C)c1ccc(NC(=O)Nc2c3c(nn2-c2ccncc2)COC3)cc1 | 5.48 | inactive | inactive | 1.3 |  |  |  |  |  |  |  |  |  | 
CC(C)(C)c1ccc(NC(=O)Nc2c3c(nn2-c2ccc(C(F)(F)F)cc2)CSC3)cc1 | 5.92 | inactive | inactive | 2.1 | < 50 |  |  |  |  |  |  |  |  | 
Cc1cccc(-n2nc3c(c2NC(=O)c2ccc(C(C)(C)C)cc2)CSC3)c1 | 5.23 | inactive | inactive | 2.3 | < 50 |  |  |  |  |  |  |  |  | 
Cc1cccc(-n2nc3c(c2NC(=O)Nc2ccc(C(C)(C)C)cc2)CSC3)c1 | 5.51 | inactive | inactive | 1.2 | < 50 |  |  |  |  |  |  |  |  | 
CC(C)(C)c1ccc(NC(=O)Nc2c3c(nn2-c2cnccn2)COC3)cc1 | 5.60 | inactive | inactive | 1.7 |  |  |  |  |  |  |  |  |  | 
CC(C)(C)c1ccc(NC(=O)Nc2c3c(nn2-c2cccc(Cl)c2)COC3)cc1 | 6.13 | inactive | inactive | 2.4 |  |  |  |  |  |  |  |  |  | 
CC(C)(C)c1ccc(S(=O)(=O)Nc2c3c(nn2-c2ccc(C(F)(F)F)cc2)CSC3)cc1 | < 4.70 | inactive | inactive | 0.01 | > 90 |  |  |  | 4.80 |  |  |  |  | 
Cc1ccc(-n2nc3c(c2NS(=O)(=O)c2ccc(C(C)(C)C)cc2)CSC3)cc1 | < 4.70 | inactive | inactive | 2.2 |  |  |  |  |  |  |  |  |  | 
CC(C)(C)C(=O)Nc1c2c(nn1-c1cccc(Cl)c1)COC2 | < 4.70 | inactive | inactive | 2.6 |  |  |  |  |  |  |  |  |  | 
CC(C)(C)c1ccc(NC(=O)Nc2c3c(nn2-c2ccc(Cl)cc2)CSC3)cc1 | 6.00 | inactive | inactive | 2.1 | < 50 | 15 | 1.97 |  |  |  |  |  |  | 
Cc1ccc(-n2nc3c(c2NC(=O)c2ccc(C(C)(C)C)cc2)CSC3)cc1 | < 4.70 | inactive | inactive | 1.5 | < 50 |  |  |  |  |  |  |  |  | 
CC(C)(C)c1ccc(NC(=O)Nc2c3c(nn2-c2cccc(Cl)c2)CSC3)cc1 | 5.89 | inactive | inactive | 2.6 | < 50 | 12.2 | 2.73 |  |  |  | 12.2 | 6.8 | 4.65 | 2.73
CC(=O)Nc1c2c(nn1-c1cccc(Cl)c1)COC2 | < 4.70 | inactive | inactive | 2.2 |  |  |  |  |  |  |  |  |  | 

From ChEMBL document CHEMBL5352440, “Promising antimalarials targeting apicoplast DNA polymerase from Plasmodium falciparum” (Eur J Med Chem, 2022)
